In ChEMBL document CHEMBL3112549 (Bioorg Med Chem Lett, 2014):

Legend:
[1] = molecular target: Vascular endothelial growth factor receptor 2 (Homo sapiens, UniProt P35968); test: Inhibition of VEGFR-2 tyrosine kinase (unknown origin) after 30 mins by HTRF method
[2] = molecular target: Mast/stem cell growth factor receptor Kit (Homo sapiens, UniProt P10721); test: Inhibition of c-KIT tyrosine kinase (unknown origin) after 30 mins by HTRF method
Chain of Mast/stem cell growth factor receptor Kit (P10721 whole entry): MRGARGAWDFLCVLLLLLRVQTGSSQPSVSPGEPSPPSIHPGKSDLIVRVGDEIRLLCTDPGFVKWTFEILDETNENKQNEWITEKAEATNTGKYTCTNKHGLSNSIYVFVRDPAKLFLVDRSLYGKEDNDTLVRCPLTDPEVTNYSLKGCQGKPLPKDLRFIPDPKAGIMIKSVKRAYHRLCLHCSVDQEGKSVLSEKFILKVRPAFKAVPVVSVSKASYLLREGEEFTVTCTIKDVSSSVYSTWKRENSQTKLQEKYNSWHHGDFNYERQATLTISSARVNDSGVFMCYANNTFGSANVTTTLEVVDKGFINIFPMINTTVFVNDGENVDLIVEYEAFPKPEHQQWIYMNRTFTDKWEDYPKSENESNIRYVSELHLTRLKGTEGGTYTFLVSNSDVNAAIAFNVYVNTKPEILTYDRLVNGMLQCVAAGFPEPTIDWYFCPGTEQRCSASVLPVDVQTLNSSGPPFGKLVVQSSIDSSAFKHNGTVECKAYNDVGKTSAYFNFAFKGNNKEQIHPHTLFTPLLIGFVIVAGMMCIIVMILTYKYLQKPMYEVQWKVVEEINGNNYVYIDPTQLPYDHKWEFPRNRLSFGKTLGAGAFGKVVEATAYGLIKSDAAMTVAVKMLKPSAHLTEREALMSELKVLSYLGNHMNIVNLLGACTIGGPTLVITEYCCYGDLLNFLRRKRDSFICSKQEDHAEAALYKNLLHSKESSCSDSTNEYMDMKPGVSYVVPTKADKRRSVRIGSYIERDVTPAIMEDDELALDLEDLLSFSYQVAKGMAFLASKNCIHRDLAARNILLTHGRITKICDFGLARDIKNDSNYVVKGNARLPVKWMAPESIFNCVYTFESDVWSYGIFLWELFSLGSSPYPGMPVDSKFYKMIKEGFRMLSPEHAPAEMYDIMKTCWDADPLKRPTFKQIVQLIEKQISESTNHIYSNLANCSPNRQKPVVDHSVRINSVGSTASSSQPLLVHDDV

Chain of Vascular endothelial growth factor receptor 2 (P35968 whole entry): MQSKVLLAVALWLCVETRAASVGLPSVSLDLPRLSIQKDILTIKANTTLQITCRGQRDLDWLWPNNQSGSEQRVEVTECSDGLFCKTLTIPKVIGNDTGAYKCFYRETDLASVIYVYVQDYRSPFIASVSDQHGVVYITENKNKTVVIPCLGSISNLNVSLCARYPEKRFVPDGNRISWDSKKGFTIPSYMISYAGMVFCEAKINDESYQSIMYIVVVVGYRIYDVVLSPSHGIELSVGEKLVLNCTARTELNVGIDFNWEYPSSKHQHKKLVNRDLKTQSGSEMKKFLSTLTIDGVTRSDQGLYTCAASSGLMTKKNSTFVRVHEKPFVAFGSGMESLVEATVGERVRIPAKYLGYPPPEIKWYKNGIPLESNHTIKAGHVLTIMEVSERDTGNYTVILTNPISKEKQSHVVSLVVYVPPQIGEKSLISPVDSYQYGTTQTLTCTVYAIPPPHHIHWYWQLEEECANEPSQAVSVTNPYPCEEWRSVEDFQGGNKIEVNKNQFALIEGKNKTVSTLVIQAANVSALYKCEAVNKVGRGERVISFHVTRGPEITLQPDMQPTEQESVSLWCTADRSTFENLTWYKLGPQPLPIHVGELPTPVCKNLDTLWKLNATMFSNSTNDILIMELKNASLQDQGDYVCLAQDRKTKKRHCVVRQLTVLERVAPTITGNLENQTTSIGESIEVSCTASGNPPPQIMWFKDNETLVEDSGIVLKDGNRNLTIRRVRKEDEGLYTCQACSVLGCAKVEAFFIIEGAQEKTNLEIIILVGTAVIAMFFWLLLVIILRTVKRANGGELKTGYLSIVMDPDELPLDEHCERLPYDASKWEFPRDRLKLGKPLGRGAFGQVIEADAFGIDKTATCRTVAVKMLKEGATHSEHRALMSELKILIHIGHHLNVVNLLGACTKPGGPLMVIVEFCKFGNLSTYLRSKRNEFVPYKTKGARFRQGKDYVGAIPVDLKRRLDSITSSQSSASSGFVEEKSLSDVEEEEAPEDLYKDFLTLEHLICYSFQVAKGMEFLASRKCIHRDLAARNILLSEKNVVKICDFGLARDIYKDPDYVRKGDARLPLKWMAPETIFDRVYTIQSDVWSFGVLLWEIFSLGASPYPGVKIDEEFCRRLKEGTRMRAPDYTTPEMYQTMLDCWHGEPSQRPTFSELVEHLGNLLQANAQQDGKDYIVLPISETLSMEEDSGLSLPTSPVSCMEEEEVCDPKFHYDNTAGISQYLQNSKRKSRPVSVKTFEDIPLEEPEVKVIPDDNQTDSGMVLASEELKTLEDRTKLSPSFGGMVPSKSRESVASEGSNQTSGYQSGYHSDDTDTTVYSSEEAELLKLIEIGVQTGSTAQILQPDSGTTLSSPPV

Work on COc1cccc(Nc2nccc(N(C)c3ccc4c(C)n(C)nc4c3)n2)c1 yielded an IC50 [1] of 0.038 µM and an IC50 [2] of 0.072 µM.
Work on Cc1c2ccc(N(C)c3ccnc(Nc4cccc(Cl)c4)n3)cc2nn1C yielded an IC50 [1] of 0.025 µM and an IC50 [2] of 0.08 µM.
For CN(c1ccc2cn(C)nc2c1)c1ccnc(Nc2cccc(F)c2)n1, the IC50 [1] was 0.093 µM and the IC50 [2] was 0.096 µM.
With COc1cccc(Nc2nccc(N(C)c3ccc4cn(C)nc4c3)n2)c1 the IC50 [1] was 0.108 µM and the IC50 [2] was 0.077 µM.
Work on Cc1c2ccc(N(C)c3ccnc(Nc4ccc(OC(F)(F)F)cc4)n3)cc2nn1C yielded an IC50 [1] of 0.072 µM and an IC50 [2] of 0.089 µM.
Cc1cc(C)cc(Nc2nccc(N(C)c3ccc4cn(C)nc4c3)n2)c1 gave an IC50 [1] of 0.028 µM and an IC50 [2] of 0.061 µM.
Cc1cc(C)cc(Nc2nccc(N(C)c3ccc4c(C)n(C)nc4c3)n2)c1 was tested, and the IC50 [1] was 0.021 µM and the IC50 [2] was 0.04 µM.
For Cc1c2ccc(N(C)c3ccnc(Nc4cccc(Br)c4)n3)cc2nn1C, the IC50 [1] was 0.064 µM and the IC50 [2] was 0.098 µM.
Cc1cccc(Nc2nccc(N(C)c3ccc4c(C)n(C)nc4c3)n2)c1 gave an IC50 [1] of 0.042 µM and an IC50 [2] of 0.087 µM.
Molecule CN(c1ccc2cn(C)nc2c1)c1ccnc(Nc2ccc(OC(F)(F)F)cc2)n1 has an IC50 [1] of 0.012 µM and an IC50 [2] of 0.083 µM.
CN(c1ccc2cn(C)nc2c1)c1ccnc(Nc2cccc(Cl)c2)n1 gave an IC50 [1] of 0.072 µM and an IC50 [2] of 0.072 µM.
With Cc1c2ccc(N(C)c3ccnc(Nc4cccc(F)c4)n3)cc2nn1C the IC50 [1] was 0.078 µM and the IC50 [2] was 0.102 µM.
CSc1ccc(Nc2nccc(N(C)c3ccc4c(C)n(C)nc4c3)n2)cc1 was tested, and the IC50 [1] was 0.051 µM and the IC50 [2] was 0.071 µM.
